According to publication PMC4689404, “2-Benzazolyl-4-Piperazin-1-Ylsulfonylbenzenecarbohydroxamic Acids as Novel Selective Histone Deacetylase-6 Inhibitors with Antiproliferative Activity” (PLoS ONE, 2015):
pIC50: −log10 of the molar value.

Tests used:
[1] = tested on: HCC4018; assay: MTS viability assay; assay type: cell-based, human; conditions: for pIC50: Homo sapiens, 96 h, Patient B cancer line, MTS, 4 days, read-out: Antiproliferative activity IC50, HCC4018; for Selectivity (HBEC-34KT vs HCC4018): Patient B
Method: (§1) Immortalized normal human bronchial epithelial cells (also provided by Dr. John D. Minna) were cultured in KSFM supplemented with pituitary extract and EGF. For viability assays, cells were plated on 96 well plates and grown overnight. Cells were then exposed to increasing doses of the indicated compounds for 4 days and their viability assayed using the Promega Cell Titer 96 AQueous One kit per the manufacturer’s protocol. All doses were tested in 4–8 replicates. IC50 values were calculated using the in-house software DIVISA.

[2] = tested on: HCC4017; assay: MTS viability assay; assay type: cell-based, human; conditions: for pIC50: Homo sapiens, HCC4017, 96 h, Patient A cancer line, MTS, 4 days, read-out: Antiproliferative activity IC50, HCC4017; for Selectivity (HBEC-30KT vs HCC4017): Patient A
Method: as §1

[3] = tested on: HCC4017 cells; assay: Annexin V apoptosis assay; assay type: cell-based, human; conditions: 18h, 40h, 64h
Method: For cell cycle analysis, cells were washed with PBS, fixed in 70% ethanol for 2 h, washed with PBS and resuspended in staining solution (0.1% Triton X-100, 0.2 mg/ml DNAse-free RNAse A and […]) and incubated at 37C for 15 min. Histograms were acquired on a BD FACSCalibur flow cytometer at UT Southwestern’s core facility. Apoptosis was measured using a FITC Annexin V Apoptosis Detection Kit I (BD Pharmingen) according to manufacturer’s protocol after treating cells with compounds as indicated in Figure legends.

[4] = tested on: SF-295; assay: NCI 60 screen, five dose; assay type: cell-based; conditions: Homo sapiens, CNS Cancer, GI50 = molar concentration, read-out: Log10 GI50 (converted)
[5] = tested on: RXF 393; assay: NCI 60 screen, five dose; assay type: cell-based; conditions: Homo sapiens, Renal Cancer, GI50 = molar concentration, read-out: Log10 GI50 (converted)
[6] = tested on: CAKI-1; assay: NCI 60 screen, five dose; assay type: cell-based; conditions: Homo sapiens, Renal Cancer, GI50 = molar concentration, read-out: Log10 GI50 (converted)
[7] = tested on: CCRF-CEM; assay: NCI 60 screen, five dose; assay type: cell-based; conditions: Homo sapiens, Leukemia, GI50 = molar concentration, read-out: Log10 GI50 (converted)
[8] = tested on: MDA-MB-435; assay: NCI 60 screen, five dose; assay type: cell-based; conditions: Homo sapiens, Melanoma, GI50 = molar concentration, read-out: Log10 GI50 (converted)
[9] = tested on: SNB-19; assay: NCI 60 screen, five dose; assay type: cell-based; conditions: Homo sapiens, CNS Cancer, GI50 = molar concentration, read-out: Log10 GI50 (converted)
[10] = tested on: EKVX; assay: NCI 60 screen, five dose; assay type: cell-based; conditions: Homo sapiens, Non-Small Cell Lung Cancer, GI50 = molar concentration, read-out: Log10 GI50 (converted)
[11] = tested on: SF-539; assay: NCI 60 screen, five dose; assay type: cell-based; conditions: Homo sapiens, CNS Cancer, GI50 = molar concentration, read-out: Log10 GI50 (converted)
[12] = tested on: SK-MEL-28; assay: NCI 60 screen, five dose; assay type: cell-based; conditions: Homo sapiens, Melanoma, GI50 = molar concentration, read-out: Log10 GI50 (converted)
[13] = tested on: Prostate Cancer cell lines; assay: NCI 60 screen, five dose; assay type: cell-based, human; conditions: for GI50: Homo sapiens; for no. cell lines used for the assay/no inhibited by compound: figures in parenthesis
[14] = tested on: Non-Small Cell Lung cancer cell lines; assay: NCI 60 screen, five dose; assay type: cell-based, human; conditions: NSCL cancer; for GI50: Homo sapiens; for no. cell lines used for the assay/no inhibited by compound: figures in parenthesis
[15] = tested on: CNS cancer cell lines; assay: NCI 60 screen, five dose; assay type: cell-based, human; conditions: for GI50: Homo sapiens; for no. cell lines used for the assay/no inhibited by compound: figures in parenthesis
[16] = tested on: Breast cancer cell lines; assay: NCI 60 screen, five dose; assay type: cell-based, human; conditions: for GI50: Homo sapiens; for no. cell lines used for the assay/no inhibited by compound: figures in parenthesis
[17] = tested on: OVCAR-8; assay: NCI 60 screen, five dose; assay type: cell-based; conditions: Homo sapiens, Ovarian Cancer, GI50 = molar concentration, read-out: Log10 GI50 (converted)
[18] = tested on: BT-549; assay: NCI 60 screen, five dose; assay type: cell-based; conditions: Homo sapiens, Breast Cancer, GI50 = molar concentration, read-out: Log10 GI50 (converted)
[19] = tested on: MCF7; assay: NCI 60 screen, five dose; assay type: cell-based; conditions: Homo sapiens, Breast Cancer, GI50 = molar concentration, read-out: Log10 GI50 (converted)
[20] = tested on: Leukemia cell lines; assay: NCI 60 screen, five dose; assay type: cell-based, human; conditions: for GI50: Homo sapiens; for no. cell lines used for the assay/no inhibited by compound: figures in parenthesis
[21] = tested on: NCI-H460; assay: NCI 60 screen, five dose; assay type: cell-based; conditions: Homo sapiens, Non-Small Cell Lung Cancer, GI50 = molar concentration, read-out: Log10 GI50 (converted)
[22] = tested on: 60 human tumor cell lines; assay: NCI 60 human tumor cell line screen; assay type: cell-based; conditions: for GI50: Homo sapiens, 60 cell, read-out: MID (average GI50 across the 60 cell lines); for average growth inhibition: single dose of 10 μm, 60 cell line panel
From the text: To evaluate if the antiproliferative activity of the novel hydroxamic acid derived compounds was general across cancer types, selected compounds were submitted for testing in the tissue-specific panel of human tumor cell lines at the National Cancer Institute, Bethesda, USA. This screen utilizes 60 human tumor cell lines, representing leukemia, melanoma and cancers of the lung, colon, brain, ovary, kidney, prostate and breast. This cell line panel offers the advantage of having available microarray gene expression data across the 60 cell lines which can be used to determine the uniqueness of a new lead for which the molecular target(s) might not be known. The antitumor activity is presented for each cell line by three parameters, namely log10 GI50 value (GI50 = molar concentration of the compound that inhibits 50% net cell growth), log10 TG value (TGI = molar concentration of the compound leading to total inhibition of net cell growth), and log10 LC50 value (LC50 = molar concentration of the compound leading to 50% net cell death) accompanied by MID which refers to the average inhibitory value across the 60 cell lines.
In this assay, compounds 9c (NSC 747073) and 9d (NSC 747072) inhibited the proliferation of subsets of leukemia, colon, CNS, melanoma, and prostrate cancer cells to a higher extent than cells from other cancers (Fig 6A and 6B).

[23] = tested on: OVCAR-5; assay: NCI 60 screen, five dose; assay type: cell-based; conditions: Homo sapiens, Ovarian Cancer, GI50 = molar concentration, read-out: Log10 GI50 (converted)
[24] = tested on: OVCAR-4; assay: NCI 60 screen, five dose; assay type: cell-based; conditions: Homo sapiens, Ovarian Cancer, GI50 = molar concentration, read-out: Log10 GI50 (converted)
[25] = tested on: IGROV1; assay: NCI 60 screen, five dose; assay type: cell-based; conditions: Homo sapiens, IGROV-1, Ovarian Cancer, GI50 = molar concentration, read-out: Log10 GI50 (converted)
[26] = tested on: Melanoma cell lines; assay: NCI 60 screen, five dose; assay type: cell-based, human; conditions: for GI50: Homo sapiens; for no. cell lines used for the assay/no inhibited by compound: figures in parenthesis
[27] = tested on: 786-0; assay: NCI 60 screen, five dose; assay type: cell-based; conditions: Homo sapiens, Renal Cancer, GI50 = molar concentration, read-out: Log10 GI50 (converted)
[28] = tested on: SF-268; assay: NCI 60 screen, five dose; assay type: cell-based; conditions: Homo sapiens, CNS Cancer, GI50 = molar concentration, read-out: Log10 GI50 (converted)
[29] = tested on: Renal Cancer cell lines; assay: NCI 60 screen, five dose; assay type: cell-based, human; conditions: for GI50: Homo sapiens; for no. cell lines used for the assay/no inhibited by compound: figures in parenthesis

Row | Compound | pIC50 [1] | Selectivity (HBEC-34KT vs HCC4018) [1] | pIC50 [2] | Selectivity (HBEC-30KT vs HCC4017) [2] | Annexin V staining, percent of dead cells [3] | GI50 [4] [µM] | GI50 [5] [µM] | GI50 [6] [µM] | GI50 [7] [µM] | GI50 [8] [µM] | GI50 [9] [µM] | GI50 [10] [µM] | GI50 [11] [µM] | GI50 [12] [µM] | GI50 [13] [µM] | no. cell lines used for the assay/no inhibited by compound [13] | GI50 [14] [µM] | no. cell lines used for the assay/no inhibited by compound [14] | GI50 [15] [µM] | no. cell lines used for the assay/no inhibited by compound [15] | also measured
1 | Cn1c(N2CCN(S(=O)(=O)c3ccc(C(=O)NO)cc3)CC2)nc2ccccc21 [Compound 9b, 4-[4-(1-methylbenzimidazol-2-yl)piperazin-1-yl]sulfonylbenzenecarbohydroxamic acid] | 5.21 | > 1.64 | 5.83 | > 6.71 | did not show any reproducible significant changes | – | – | – | – | – | – | – | – | – | – | – | – | – | – | – | –
2 | O=C(NO)c1ccc(S(=O)(=O)N2CCN(c3nc4ccccc4s3)CC2)cc1 [Compound 9d, 4-(4-Benzothiazol-2-yl-piperazin-1-sulfonyl)-N -hydroxy-benzamid] | 5.40 | 2.06 | 5.79 | 3.29 | – | 1.86 | 2 | 2.34 | 1.82 | 1.86 | 5.37 | 4.37 | 2.34 | 1.58 | 2.48 | 2/2 | 3.77 | 4/9 | 2.77 | 4/6 | GI50 [16]: 3.88 µM; no. cell lines used for the assay/no inhibited by compound [16]: 4/7; GI50 [17]: 1.7 µM; GI50 [18]: 2.4 µM; GI50 [19]: 15.8 µM; GI50 [20]: 1.77 µM; no. cell lines used for the assay/no inhibited by compound [20]: 5/5; GI50 [21]: 5.13 µM; GI50 ([22]; five dose assay): 3.16 µM; more potent overall by a factor, compared to 9c ([22]; MID, five dose assay): 2; average growth inhibition [22]: 62%; GI50 [23]: 7.76 µM; GI50 [24]: 3.8 µM; GI50 [25]: 3.55 µM; GI50 [26]: 2.66 µM; no. cell lines used for the assay/no inhibited by compound [26]: 5/8; GI50 [27]: 9.12 µM; GI50 [28]: 3.98 µM; GI50 [29]: 3.94 µM; no. cell lines used for the assay/no inhibited by compound [29]: 3/8
3 | O=C(NO)c1ccc(S(=O)(=O)N2CCN(c3nc4ccccc4o3)CC2)cc1 [Compound 9c, 4-(4-Benzoxazol-2-yl-piperazin-1-sulfonyl)-N -hydroxy-benzamid] | 5.30 | > 1.98 | 5.91 | > 8.06 | did not show any reproducible significant changes | 3.09 | 4.47 | 3.39 | 1.78 | 3.63 | 10 | 8.91 | 3.72 | 4.57 | 4.89 | 2/2 | 9.51 | 3/9 | 5.82 | 4/6 | GI50 [16]: 8.71 µM; no. cell lines used for the assay/no inhibited by compound [16]: 2/7; GI50 [17]: 3.24 µM; GI50 [18]: 12 µM; GI50 [19]: 3.8 µM; GI50 [20]: 2.24 µM; no. cell lines used for the assay/no inhibited by compound [20]: 4/4; GI50 [21]: 10.7 µM; GI50 ([22]; five dose assay): 6.61 µM; average growth inhibition [22]: 50%; GI50 [23]: 10.2 µM; GI50 [24]: 4.9 µM; GI50 [25]: 11 µM; GI50 [26]: 5.62 µM; no. cell lines used for the assay/no inhibited by compound [26]: 6/8; GI50 [27]: 23.4 µM; GI50 [28]: 12 µM; GI50 [29]: 8.24 µM; no. cell lines used for the assay/no inhibited by compound [29]: 3/8
